Data as given in patent US11840686B2, “Modulation of prekallikrein (PKK) expression” (Ionis Pharmaceuticals, Inc., priority 2013, dated 2023).
Strand notation (5' to 3'): a small letter for the sugar, then the base; units joined by * are phosphorothioate-linked, units joined directly phosphodiester-linked; [ ] holds rarer units or linkages, { } end groups; capitals alone tell only the bases. e = 2'-O-(2-methoxyethyl) (MOE); [5mC] = 5-methylcytosine; d = 2'-deoxy (DNA)

Columns and labels:
[1] = system: PKK protein; test: Plasma PKK protein levels in human KLKB1 transgenic mice (Example 7); type: in vivo; conditions: transgenic mice
How it was run: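 Human KLKB1 transgenic mice dosed subcutaneously twice weekly for 3 weeks with antisense oligonucleotides at 2.5, 5.0, 10 or 20 mg/kg/week. Plasma collected 48 hours after the final dose; PKK protein expressed as percent inhibition relative to PBS-treated controls.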

[2] = system: PKK mRNA; test: PKK mRNA in cynomolgus monkey liver (Example 8); type: in vivo; conditions: primates, Example 8
How it was run: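 Cynomolgus monkeys were dosed with human antisense oligonucleotides cross-reactive with the rhesus sequence. Liver RNA taken on day 87 or 88, 48 h after the last dose, was assayed by real-time PCR (primer probe set RTS3455) and normalized to cyclophilin. Values are percent PKK mRNA inhibition versus PBS control.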

[3] = system: PKK protein; test: PKK protein in BALB/c mice plasma by immunoblot (Example 10); type: in vivo, mouse; conditions: for % inhibition of PKK protein in BALB/c mice plasma: twice a week for 3 weeks, relative to PBS control
Procedure: Six groups of male BALB/c mice each were treated with 2.5 mg/kg, 5.0 mg/kg, 10.0 mg/kg, 20.0 mg/kg, 40.0 mg/kg, or 80.0 mg/kg of ISIS 482584, administered subcutaneously twice a week for 3 weeks (weekly doses of 5.0 mg/kg, 10.0 mg/kg, 20.0 mg/kg, 40.0 mg/kg, 80.0 mg/kg, or 160.0 mg/kg). A control group of BALB/c mice was treated with PBS, administered subcutaneously twice a week for 3 weeks. Two days after the last dose of antisense oligonucleotide or PBS, mice from all groups were anesthetized with 150 mg/kg ketamine mixed with 10 mg/kg xylazine, administered by intraperitoneal injection. Liver was collected for RNA analysis.
Plasma was collected in tubes containing sodium citrate as an anticoagulant. The samples were run on a 4-12% gradient SDS-polyacrylamide gel (Invitrogen), followed by immunoblotting with murine PKK antibody (R&D Systems). Blots were incubated with secondary fluorophore-labeled antibodies (LI-COR) and imaged in an Odyssey Imager (LI-COR). Results are presented as percent inhibition of PKK, relative to PBS control.

[4] = system: vascular leakage; test: Vascular leakage, plasma Evans Blue OD620, basal model (Example 14); type: in vivo, mouse
Procedure: Groups 3, 4, 5, 6, 7, and 8 consisted of 8 mice each and were treated with 2.5 mg/kg, 5 mg/kg, 10 mg/kg, 20 mg/kg, 40 mg/kg, or 80 mg/kg (corresponding to 5 mg/kg, 10 mg/kg, 20 mg/kg, 40 mg/kg, 80 mg/kg, or 160 mg/kg per week), respectively of ISIS 482584 administered subcutaneously twice a week for 3 weeks. […] served as the experimental treatment groups for examining the effect of varying doses of ISIS 482584 on basal vascular permeability.
All the groups were then injected with 30 mg/kg of Evans Blue solution in the tail vein. The mice were sacrificed 30 min after the Evans Blue solution administration and colons, feet, and ears were harvested and examined for permeability defects. Blood samples were taken through cardiac puncture.
The blood drawn through cardiac puncture was immediately mixed with 3 times the volume of ice-cold ethanol. The solution was centrifuged at 15,000 g for 20 minutes at 4° C. to remove cell debris and precipitated plasma proteins. The ethanol extracts were further purified by ultra-filtration through a 10 kDa MWCO filter. The color intensity of the ethanol extracted plasma solution was then measured at OD620 nm. The results are presented in Table 70 as percentage increase or decrease of the OD values of the Group 1 PBS control. It was expected that treatment groups may display higher OD values due to reduced vascular leakage.

[5] = system: high molecular weight kininogen (HMWK); test: Western blot quantification of HMWK and HMWK cleavage product by densitometer (Example 14); type: in vivo, mouse; conditions: for Quantification of HMWK by densitometer / Quantification of HMWK cleavage product by densitometer: Western blot of blood samples, basal model
Description: Treatment with PKK antisense oligonucleotide results in stabilization of HMWK. Thus, vascular permeability is reduced in ISIS 482584-treated groups in a dose-dependent manner. […] Thus, reduced HMWK is caused by PKK cleavage of HMWK into cleavage products (including bradykinin and HKa). Data are presented in Intensity Units as measured by densitometer.

“Tes Ges mCes Aes Aes Gds Tds mCds Tds mCds Tds Tds Gds Gds mCds Aes Aes Aes mCes Ae [ISIS 546254]” was tested, and the “human PKK protein inhibition” value ([1]; 2.5 mg/kg/week s.c. twice a week for 3 weeks) was 0%, the “human PKK protein inhibition” value ([1]; 5.0 mg/kg/week s.c. twice a week for 3 weeks) was 36% and the “human PKK protein inhibition” value ([1]; 10 mg/kg/week s.c. twice a week for 3 weeks) was 51%. For the same substance, the “human PKK protein inhibition” value ([1]; 20 mg/kg/week s.c. twice a week for 3 weeks) was 76% and the “inhibiting PKK mRNA and protein expression in primates” value [2] was “effective for inhibiting PKK mRNA and protein expression”.

With “ISIS 482584: 5-10-5 MOE gapmer targeting murine PKK, GGCATATTGGTTTTTGGAAT; SEQ ID NO: 2244 (antisense eG*eG*e[5mC]*eA*eT*dA*dT*dT*dG*dG*dT*dT*dT*dT*dT*eG*eG*eA*eA*eT)” the “% inhibition of PKK protein in BALB/c mice plasma” value (from here on “% inhibition of PKK protein”) ([3]; 5 mg/kg/wk sc) was 5%, the “% inhibition of PKK protein” value ([3]; 10 mg/kg/wk sc) was 24% and the “% inhibition of PKK protein” value ([3]; 20 mg/kg/wk sc) was 47%. For the same substance, the “% inhibition of PKK protein” value ([3]; 40 mg/kg/wk sc) was 76%, the “% inhibition of PKK protein” value ([3]; 80 mg/kg/wk sc) was 81% and the “reduction of PKK plasma protein” value ([3]; BALB/c mice, 2.5-80.0 mg/kg s.c. twice a week for 3 weeks, vs PBS) was “significant dose-dependent reduction of PKK plasma protein”. The “Percentage of OD620 nm of Evans Blue dye compared to the PBS basal control, Plasma” value (from here on “Percentage of OD620 nm of Evans Blue dye”) ([4]; 10 mg/kg/week) was 36%, the “Percentage of OD620 nm of Evans Blue dye” value ([4]; 20 mg/kg/week) was 56% and the “Percentage of OD620 nm of Evans Blue dye” value ([4]; 40 mg/kg/week) was 83%. For the same substance, the “Percentage of OD620 nm of Evans Blue dye” value ([4]; 80 mg/kg/week) was 93%, the “Percentage of OD620 nm of Evans Blue dye” value ([4]; 160 mg/kg/week) was 95% and the “Quantification of HMWK by densitometer” value ([5]; 10 mg/kg/week) was 507 Intensity Units. The “Quantification of HMWK cleavage product by densitometer” value ([5]; 10 mg/kg/week) was 414774 Intensity Units, the “Quantification of HMWK by densitometer” value ([5]; 20 mg/kg/week) was 608 Intensity Units and the “Quantification of HMWK cleavage product by densitometer” value ([5]; 20 mg/kg/week) was 403360 Intensity Units. For the same substance, the “Quantification of HMWK by densitometer” value ([5]; 40 mg/kg/week) was 873 Intensity Units, the “Quantification of HMWK cleavage product by densitometer” value ([5]; 40 mg/kg/week) was 388135 Intensity Units and the “Quantification of HMWK by densitometer” value ([5]; 80 mg/kg/week) was 7279 Intensity Units. For the same substance, the “Quantification of HMWK cleavage product by densitometer” value ([5]; 80 mg/kg/week) was 204482 Intensity Units, the “Quantification of HMWK by densitometer” value ([5]; 160 mg/kg/week) was 21358 Intensity Units and the “Quantification of HMWK cleavage product by densitometer” value ([5]; 160 mg/kg/week) was 19936 Intensity Units. For the same substance, the “HMWK cleavage product” value ([5]; vs PBS control, dose-dependent) was “lower HMWK cleavage product” and the “levels of HMWK” value ([5]; vs PBS control, dose-dependent) was “higher levels of HMWK”.
